{
  "source": "patent US20050118099A1",
  "about": "“Thiol-mediated drug attachment to targeting peptides” (priority 2003, published 2005)",
  "key": {"[1]": {"target": "human somatostatin receptor SSTR2 of IMR-32 human neuroblastoma cells (human) (UniProt P30874)", "sequence (P30874 whole entry)": "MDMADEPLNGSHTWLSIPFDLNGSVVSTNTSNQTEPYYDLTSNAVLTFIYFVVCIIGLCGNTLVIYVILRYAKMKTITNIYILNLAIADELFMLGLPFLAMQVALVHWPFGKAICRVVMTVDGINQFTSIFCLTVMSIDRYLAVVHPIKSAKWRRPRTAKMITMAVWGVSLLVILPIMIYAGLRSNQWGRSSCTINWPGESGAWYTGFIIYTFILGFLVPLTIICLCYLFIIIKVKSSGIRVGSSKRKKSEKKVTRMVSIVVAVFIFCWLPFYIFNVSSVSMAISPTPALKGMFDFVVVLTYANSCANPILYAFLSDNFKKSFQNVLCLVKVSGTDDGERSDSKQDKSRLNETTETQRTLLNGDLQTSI", "test": "uptake of applied cpm by SSTR+ human cancer cells, 20-24 h at 37 C, gamma counting"}, "[2]": {"target": "human somatostatin receptor SSTR2 of IMR-32 human neuroblastoma cells (human) (UniProt P30874)", "test": "uptake of applied cpm by SSTR+ human cancer cells; competitor somatostatin at 1000X molar excess"}, "IMR-32 cells": {"system": "IMR-32 cells", "test": "Tumor growth inhibition in IMR-32 mouse xenograft model", "type": "in vivo", "conditions": "AE at 75% of the MTD, multiple dose regimen", "protocol": "(§1) FIGS. 3A-3B are line graphs depicting tumor growth inhibition in an IMR-32 mouse xenograft model following administration of AE (◯), 1×CP1-FKMMAE (□), or 3×CP1-FKMMAE (⋄). The control sample depicts uninhibited tumor growth (X). Arrows indicate the times of administration, as described in Example 5.\n(§2) The tumoricidal effects of CP1-FKMMAE were evaluated in a mouse xenograft model. Tumors were established in nude mice by subcutaneous injection of IMR-32 cells. A multiple dose regimen was evaluated based on prior studies using AE, which determined a MTD following four administrations of 0.4 mg/kg. Due to limited availability, AE was used at 75% of the MTD. CP1-FKMMAE was administered at 1× and 3× molar equivalents of AE according to the same dosing schedule. Tumor volume, animal weight, and serum growth hormone levels were assessed for each treatment group."}, "[3]": {"test": "Animal weight in IMR-32 mouse xenograft model", "type": "in vivo", "conditions": "AE at 75% of the MTD", "protocol": "as §1, §2"}, "growth hormone": {"system": "growth hormone", "test": "Serum growth hormone levels (ELISA) in IMR-32 mouse xenograft model", "type": "in vivo", "conditions": "AE at 75% of the MTD, potential toxicity to the pituitary gland", "protocol": "FIG. 4 is a line graph depicting growth hormone levels in an IMR-32 mouse xenograft model following administration of AE (◯), 1×CP1-FKMMAE (□), or 3×CP1-FKMMAE (⋄). The control sample depicts growth hormone levels in the absence of treatment (X). Arrows indicate the times of administration, as described in Example 5. Serum growth hormone levels were determined by ELISA to assess potential toxicity to the pituitary gland.\nas §2"}, "[4]": {"conditions": "following four administrations; prior studies; cited from earlier work"}, "[5]": {"target": "human somatostatin receptor SSTR2 of IMR-32 human neuroblastoma cells (human) (UniProt P30874)", "test": "competition with Indium-111-octreotide on IMR-32 membrane extracts, filter assay, gamma counting"}},
  "data": [
    {"compound": "Indium-111-octreotide (peptide)", "values": [
      {"measurement": "Percentage (%) Uptake", "setting": "[1]", "value": 4.4, "unit": "%"},
      {"measurement": "Percentage (%) Uptake in the Presence of 1000X SST", "setting": "[2]", "value": 0.1, "unit": "%"}
    ]},
    {"compound": "CC[C@H](C)[C@@H]([C@@H](CC(=O)N1CCC[C@H]1[C@H](OC)[C@@H](C)C(=O)N[C@H](C)[C@@H](O)c1ccccc1)OC)N(C)C(=O)[C@@H](NC(=O)[C@H](C(C)C)N(C)C)C(C)C", "note": "[AE, Auristatin E]", "values": [
      {"measurement": "Mean tumor volume", "setting": "IMR-32 cells", "value": "reduction in mean tumor volume"},
      {"measurement": "Mean mouse weight", "setting": "[3]", "value": "slightly increased"},
      {"measurement": "Serum growth hormone levels", "setting": "growth hormone", "value": "relative stability"},
      {"measurement": "MTD (maximal tolerable dose)", "setting": "[4]", "value": 0.4, "unit": "mg/kg"}
    ]},
    {"compound": "octreotide (unlabeled) (peptide)", "values": [
      {"measurement": "IC50", "setting": "[5]", "value": 3, "unit": "nM"}
    ]}
  ]
}
